One series concerns HIV-1 (RF). As to the kind of experiment: HIV RNA assay: microplate based compound evaluation in HIV-1 infected MT-2 cells. The format is cell-based. The conditions noted are these: Human immunodeficiency virus 1, MT2, 72 h; HIV-1 (RF) infected MT-2 cells, 3 days of culture; virus dilution selected to standardize the inoculum; read-out: IC90 value (concentration of compound required to reduce the HIV RNA level by 90%). As for the experimental part:
Plasmid pDAB 72 containing both gag and pol sequences of BH10 (bp 113-1816) cloned into PTZ 19R was prepared according to Erickson-Viitanen et al. AIDS Research and Human Retroviruses 1989, 5, 577. The plasmid was linearized with Bam HI prior to the generation of in vitro RNA transcripts using the Riboprobe Gemini system II kit (Promega) with T7 RNA polymerase. Synthesized RNA was purified by treatment with RNase free DNAse (Promega), phenol-chloroform extraction, and ethanol precipitation. RNA transcripts were dissolved in water, and stored at −70° C. The concentration of RNA was determined from the A260.
Biotinylated capture probes were purified by HPLC after synthesis on an Applied Biosystems (Foster City, Calif.) DNA synthesizer by addition of biotin to the 5′ terminal end of the oligonucleotide, using the biotin-phosphoramidite reagent of Cocuzza, Tet. Lett. 1989, 30, 6287. […]
MT-2 and MT-4 cells were maintained in RPMI 1640 supplemented with 5% fetal calf serum (FCS) for MT-2 cells or 10% FCS for MT-4 cells, 2 mM L-glutamine and 50 μg/mL gentamycin, all from Gibco. […] Infectious titers of HIV-1(RF) stocks were 1-3×10^7 PFU (plaque forming units) /mL as measured by plaque assay on MT-2 cells (see below). […]

In brackets after ≈: the same amount, converted by molar mass.

Regarding `Nc1ccn([C@H]2CC[C@@H](CO)O2)c(=O)n1` [ddC, dideoxycytidine], the IC90 with HIV-1 (RF) was found to be 0.2 µg/mL (≈ 0.947 µM). In general, melting point refers to the temperature of the solid-liquid transition. With `CCCCN1C(=O)N(Cc2ccc3[nH]nc(N)c3c2)[C@H](Cc2ccccc2)[C@H](O)[C@@H](O)[C@H]1Cc1ccccc1` [Example 1, (4R,5S,6S,7R)-Hexahydro-1-[5-(3-aminoindazole)methyl]-3-butyl-5,6-dihydroxy-4,7-bis[phenylmethyl]-2H-1,3-diazapin-2-one], the melting point is 129 to 131 °C.

These data come from patent US6451999B2, “1-(3-aminoindazol-5-yl)-3-butyl-cyclic urea useful as a HIV protease inhibitor” (Bristol-Myers Squibb Pharma Company, priority 1996, dated 2002).
